The values that follow are results of earlier work, collected in patent US9180198B2, “Slow-release cilostazol tablet having an improved elution rate and minimal side effects” (KOREA UNITED PHARM, INC., priority 2009, dated 2015).

The subject of data set [1] is blood platelets. To be noted: blood platelets isolated from a mouse, a rat, a rabbit, a dog and a human.
For data set [2], the system named is cAMP-PDE (cyclic AMP phosphodiesterase). To be noted: in blood platelets and vascular smooth muscles.

`O=C1CCc2cc(OCCCCc3nnnn3C3CCCCC3)ccc2N1` [cilostazol, 6-[4-(cyclohexyl-1H-tetrazol-5-yl)butoxy]-3,4-dihydro-2(1H)-quinolinone]: the water solubility entry is on record as “poorly water-soluble”. In addition, in data set [1], the “primary aggregation of blood platelets caused by ADP, epinephrine” value is “suppress the primary aggregation of blood platelets”. In addition, the cAMP-PDE activity entry in data set [2] is given as “inhibit cAMP-PDE (cyclic AMP phosphodiesterase) activity”.
